Assays:
[1] = tested on: PMA-induced release of endogenous IL-6R from human PBMCs from healthy donors; test: ELISA-based IL-6R release assay, PMA-induced, PBMCs from healthy donors; format: cell-based; details: PBMC, Batimastat 10 μM, PMA 25 ng/ml, 24 hours
Protocol: In the following study, ELISA-based IL-6R release assays were performed to analyze the inhibitory effects of the antibodies of the invention on PMA-induced release of endogenous IL-6R from primary human material obtained from healthy donors using peripheral blood mononuclear cells (PBMCs).
In brief, on day 1, Nunc black MaxiSorp® 96-well plates (Thermo Fisher Scientific, USA) were coated overnight with 100 μl per well of mouse anti-human IL-6R capture antibody (provided as part of the DuoSet ELISA kit) at 2 μg/ml TBS at 4° C. […]
Meanwhile, the 96-well plates were centrifuged to pellet cells. […] Using an infinite M1000 (Tecan Group, Switzerland) microplate reader, the fluorescence of each well was collected at an excitation wavelength of 435 nm and an emission wavelength of 555 nm.

[2] = molecular target: T1, human iRhom2 variant hiR2-FL-K536A-T7 (Homo sapiens, UniProt Q6PJF5, K536A); test: FACS epitope mapping on MEF-DKO-hiR2-FL-K536A-T7 cells; format: binding; details: antibody at 3 μg/ml, compared with MEF-DKO-hiR2-FL-WT-T7 cells
T1 construct: expressed in transfected cells; host or cells: immortalized iRhom1/2-/- DKO mouse embryonic fibroblasts, pMSCV retroviral infection
T1 sequence (Q6PJF5 1-856 K536A): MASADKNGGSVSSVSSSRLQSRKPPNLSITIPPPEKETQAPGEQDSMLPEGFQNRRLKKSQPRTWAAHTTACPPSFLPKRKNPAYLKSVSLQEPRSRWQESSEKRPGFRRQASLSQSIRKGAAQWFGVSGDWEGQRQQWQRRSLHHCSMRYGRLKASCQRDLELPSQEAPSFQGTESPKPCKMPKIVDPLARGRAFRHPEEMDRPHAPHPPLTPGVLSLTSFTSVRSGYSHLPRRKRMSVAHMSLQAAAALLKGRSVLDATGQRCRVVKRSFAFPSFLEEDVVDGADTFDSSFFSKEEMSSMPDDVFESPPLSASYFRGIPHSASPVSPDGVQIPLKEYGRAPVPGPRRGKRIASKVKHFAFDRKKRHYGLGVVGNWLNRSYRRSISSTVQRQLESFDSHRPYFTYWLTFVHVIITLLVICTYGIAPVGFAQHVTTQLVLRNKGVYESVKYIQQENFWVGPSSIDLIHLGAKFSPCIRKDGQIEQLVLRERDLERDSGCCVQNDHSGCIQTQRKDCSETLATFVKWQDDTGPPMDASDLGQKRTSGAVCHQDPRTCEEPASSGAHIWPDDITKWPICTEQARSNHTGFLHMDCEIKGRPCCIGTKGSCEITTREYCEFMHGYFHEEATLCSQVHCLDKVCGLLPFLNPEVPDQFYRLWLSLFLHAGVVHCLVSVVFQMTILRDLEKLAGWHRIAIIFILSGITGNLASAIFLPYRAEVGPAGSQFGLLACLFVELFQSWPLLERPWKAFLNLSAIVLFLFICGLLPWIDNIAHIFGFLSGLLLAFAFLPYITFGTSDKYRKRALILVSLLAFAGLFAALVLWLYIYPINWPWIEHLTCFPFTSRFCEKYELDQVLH
Text: This example describes the generation of iRhom1/2−/− DKO MEF populations expressing the 137 single amino acid substitution or deletion variants as well as their characterization in terms of cell surface localization and functional activity as indicators of proper protein conformation. Subsequently, binding analyses of the humanized antibodies 16-B-03, 16-B-05, 16-B-07, 23-B-04, 42-B-02 and 42-B-04 of the invention on the entire panel of 137 engineered MEF populations expressing human iRhom2 variants with single amino acid substitutions or deletions are described.
In brief, on day 1, Phoenix-ECO cells (American Type Culture Collection, USA) were seeded on 6-well tissue culture plates (Greiner, Germany) in standard growth medium at 8×10^5 cells per well and kept overnight at 37° C., 5% CO2. On day 2, the medium was replaced by fresh medium supplemented with chloroquine (Sigma-Aldrich, USA) at a final concentration of 25 μM. […]

Molecule | inhibition at 10 µM [1] | effect of substitution of lysine 536 of human iRhom2 by alanine on antibody binding (MEF-DKO-hiR2-FL-K536A-T7 cells) [2]
CNC(=O)[C@H](Cc1ccccc1)NC(=O)[C@H](CC(C)C)[C@H](CSc1cccs1)C(=O)NO [Batimastat] | 96.2% | –
42-B-02: humanized antibody binding human iRhom2; HCVD SEQ ID NO 33, LCVD SEQ ID NO 37 (antibody, V domains shown, antibody sequences) VH: QVTLRESGPALVKPTQTLTLTCTFSGFSLSTFGRGVGWIRQPPGKALEWLAHIWWDDEKYYNSALKSRLTISKDTSKNQVVLTITNMDPVDTATYYCARIQNYGSNYWYFDVWGQGTLVTVSS VL: AIQLTQSPSSLSASVGDRVTITCRASSRISYMFWYQQKPGKAPKVLIYDTSNLASGVPSRFSGSGSGTDYTLTISSLQPEDFATYYCQQWNSYPLTFGQGTKLEIK | – | strongly impairs

Source: US12404345B2, “Humanized antibodies against iRHOM2” (SCIRHOM GMBH, priority 2021, dated 2025)
